Experimental data as given in patent publication US20250387398A1, “NEW HIGH-EFFICIENCY ANTIMICROBIAL COMPOSITION” (CM4CURE S.A., priority 2023, published 2025).
Where two headings read alike, the source gives them in different places.

Columns and labels:
Candida krusei = conditions: cited from earlier work
Fusobacterium nucleatum = conditions: cited from earlier work
Candida tropicalis = conditions: cited from earlier work
[1] = test system: Staphylococcus aureus MRSA; conditions: cited from earlier work
[2] = test system: Lactobacillus acidophilus; conditions: cited from earlier work
Streptococcus mutans = conditions: cited from earlier work
[3] = test system: Staphylococcus aureus (MRSA, ATCC 6538); test: Real-time microcalorimetric measurement of metabolic activity (Calscreener); format: cell-based
Description: Staphylococcus aureus (MRSA, ATCC 6538) was grown overnight in TSB (tryptic soy broth) medium, before being diluted 1×10^6 fold in fresh TSB. Subsequently […] aliquots of diluted bacteria suspensions were respectively supplemented with 1 and 2 mg/L of chlorhexidine (digluconate solution, 20% in H2O, Merck). […] The aqueous solution of chlorhexidine and the ethanol-based solution of triafluocyl were kept refrigerated. Chlorhexidine, triafluocyl or both, and ethanol as a vehicle were added to the bacterial suspensions to obtain the given concentrations followed by a brief vortexing. Bacterial aliquots were then distributed in the dedicated non-activated inserts of a 48-well plate and grown for 24 h or more under static conditions at 37 C using Calscreener technology to measure bacterial growth and metabolic activity in Real-Time as described in https://cordis.europa.eu/project/id/784514.
In FIG. 3, one sees the real-time microcalorimetric measurements of bacterial metabolic activity expressed as the heat flow, providing S. aureus as an example of Gram-positive bacteria strain. The line A stands for control bacteria with a vehicle at 0.66% ethanol in TSB, whereas the line B represents bacteria treated respectively with 1 mg/L of triafluocyl; C—1 mg/L of chlorhexidine; D—2 mg/L of chlorhexidine; and E—1 mg/L of chlorhexidine with 1 mg/L of triafluocyl.
Staphylococcus aureus (MRSA, ATCC 6538) was grown overnight in TSB (tryptic soy broth) medium, before being diluted 1×10^6 fold in fresh TSB. Subsequently […] aliquots of diluted bacteria suspensions were respectively supplemented with 0.25, 0.5 and 1 μg/mL of chlorhexidine (digluconate solution, 20% in H2O, Merck) or alexidine dihydrochloride (stock solution of 3 mg/mL in ethanol, Merck).
The aqueous solution of chlorhexidine and the ethanol-based solution of alexidine were kept refrigerated. Chlorhexidine, alexidine, and ethanol as a vehicle were added to the bacterial suspensions to obtain the given concentrations followed by a brief vortexing. Bacterial aliquots were then distributed in the dedicated non-activated inserts of a 48-well plate and grown for 24 h or more under static conditions at 37 C using Calscreener technology to measure bacterial growth and metabolic activity in Real-Time as described in https://cordis.europa.eu/project/id/784514.
In FIG. 4 the real-time microcalorimetric measurements of bacterial metabolic activity is expressed as the heat flow, providing S. aureus as an example. The line A stands for control bacteria with a vehicle (ethanol), whereas the line B represents bacteria treated respectively with 0.25 mg/mL of chlorhexidine; C—0.5 mg/mL of chlorhexidine; D—1 mg/mL of chlorhexidine; E—0.25 mg/mL of alexidine; F −0.5 mg/mL of alexidine; and G—1 mg/mL of alexidine.
Staphylococcus aureus (MRSA, ATCC 6538) was grown overnight in TSB (tryptic soy broth) medium, before being diluted 1×10^6 fold in fresh TSB. Subsequently […] aliquots of diluted bacteria suspensions were respectively supplemented with […] of alexidine dihydrochloride (stock solution of 3 mg/mL in ethanol, Merck). […] The ethanol-based solutions of alexidine and fluometacyl were stored at −20° C. […]
In FIG. 5 real-time microcalorimetric measurements of bacterial metabolic activity is expressed as the heat flow, providing S. aureus as an example. […]

[4] = background, cited from earlier work
Porphyromonas gingivalis = conditions: cited from earlier work
Candida albicans (CA) = test: MIC in monotherapy and in combination (ISO standard 20776-1); format: cell-based
From the text: (§1) Summary Of MIC values for Fluometacyl (FLC)+Chlorhexidine (CHX) Tested Against MRSA, Enterococcusfaecalis (VRE), Pseudomonas aeruginosa (PA) and Candida albicans (CA).
(§2) By Minimum Inhibitory Concentration (MIC) one means the lowest concentration of antimicrobial that prevents visible growth of a microorganism (determined according to ISO standard 20776-1).
(§3) This finds an implication in combining many known antimicrobials together rather than discovering new chemical entities.

[5] = test system: Pseudomonas aeruginosa (PA); test: as above; format: cell-based
From the text: as §1, §2, §3

[6] = test system: Pseudomonas aeruginosa (ATCC 15442); test: Real-time microcalorimetric measurement of metabolic activity (Calscreener); format: cell-based
Description: Pseudomonas aeruginosa (ATCC 15442) was grown overnight in TSB (tryptic soy broth) medium, before being diluted 1×10^7 fold in fresh TSB. Subsequently […] aliquots of diluted bacteria suspensions were respectively supplemented with 1, 2, 4, 6, 12 and 24 mg/L of chlorhexidine (digluconate solution, 20% in H2O, Merck). The aqueous solution of chlorhexidine was kept refrigerated according to the manufacturer's technical sheet. Chlorhexidine or mQH2O as a vehicle were added to the bacterial suspensions to obtain the given concentrations followed by a brief vortexing. Bacterial aliquots were then distributed in the dedicated non-activated inserts of a 48-well plate and grown for 24 h or more under static conditions at 37 C using Calscreener technology to measure bacterial growth and metabolic activity in Real-Time as described in https://cordis.europa.eu/project/id/784514.
For the study of the combination of chlorhexidine and triafluocyl aforementioned diluted bacterial suspensions were supplemented with either chlorhexidine alone (1, 2, 4, 6, 12 mg/L) or mixed with triafluocyl (20 mg/L, Polpharma). Triafluocyl was stored in absolute ethanol in the refrigerator at a concentration of 3 mg/mL. […]
FIG. 1, illustrates a real-time microcalorimetric measurements of bacterial metabolic activity expressed as the heat flow, providing P. aeruginosa as an example. […]

## [H]/N=C(\N/C(=N/[H])NCCCCCCNC(=N)NC(=N)Nc1ccc(Cl)cc1)Nc1ccc(Cl)cc1 [Chlorhexidine, chlorhexidine]
Candida krusei
  MIC of chlorhexdine: 150 µg/mL
Fusobacterium nucleatum
  MIC of chlorhexdine: 1.8 µg/mL
Candida tropicalis
  MIC of chlorhexdine: 75 µg/mL
[1]
  MIC of chlorhexdine: 2 to 8 µg/mL
[1]; listed as chlorexhidrine
  MIC of chlorhexdine: 1 to 8 µg/mL
[1]; listed as chlorhexidrine
  MIC of chlorhexdine: 1 to 8 µg/mL
[2]
  MIC of chlorhexdine: 0.5 to 2 µg/mL
Streptococcus mutans
  MIC of chlorhexdine: 0.9 to 4 µg/mL
[3]; chlorhexidine 1 mg/L, FIG. 3
  effect on growth (heat flow): strong shift in a metabolic activity
[3]; chlorhexidine 1 mg/mL, FIG. 4
  effect on growth (heat flow): strong shift in a metabolic activity
[4]; chlorhexidine base
  solubility in water: insoluble in water
Porphyromonas gingivalis
  MIC of chlorhexdine: 0.9 µg/mL

## CCCSc1nc(N[C@@H]2C[C@H]2c2ccc(F)c(F)c2)c2nnn([C@@H]3C[C@H](O)[C@@H](O)[C@H]3O)c2n1 [Fluometacyl, (1S,2R,3S,4R)-4-[7-[[(1R,2S)-2-(3,4-Difluorophenyl)cyclopropyl]amino]-5-(propylthio)-3H-1,2,3-triazolo[4,5-d]pyrimidin-3-yl]-1,2,3-cyclopentanetriol]
Candida albicans (CA)
  MIC Monotherapy (X): Not detected
[5]
  MIC Monotherapy (X): Not detected
[4]
  solubility in an aqueous environment or aqueous medium: generally not soluble

## CCCSc1nc(N[C@@H]2C[C@H]2c2ccc(F)c(F)c2)c2nnn([C@@H]3C[C@H](OCCO)[C@@H](O)[C@H]3O)c2n1 [Triafluocyl, (1S,2S,3R,5S)-3-[7-[(1R,2S)-2-(3,4-difluorophenyl)cyclopropylamino]-5-(propylthio)-3H-[1,2,3]-triazolo[4,5-d]pyrimidin-3-yl]-5-(2-hydroxyethoxy)-1,2-cyclopentanediol]
[3]; triafluocyl 1 mg/L, FIG. 3
  effect on growth (heat flow): doesn't affect the growth
[6]; triafluocyl 20 mg/L, FIG. 2
  effect on growth (heat flow): does not inhibit the growth
[4]
  solubility in an aqueous environment or aqueous medium: generally not soluble

## alexidine
[3]; alexidine 1 mg/mL, FIG. 4
  effect on growth (heat flow): full growth inhibition
[3]; alexidine 0.25 and 0.5 mg/mL, FIG. 4
  effect on growth (heat flow), compared with chlorhexidine: noticeably stronger effect
[6]; alexidine 4 mg/mL, FIG. 6
  effect on growth (heat flow): strong growth inhibition
